We go through one compound from article PMC6704710, “Preclinical evaluation of 3D185, a novel potent inhibitor of FGFR1/2/3 and CSF-1R, in FGFR-dependent and macrophage-dominant cancer models” (Journal of Experimental & Clinical Cancer Research : CR, 2019).

Holding throughout (assay): Eurofins kinase panel
Type in all cases: biochemical
Holding throughout (conditions): read-out: Inhibition rate (%)

Assay [1] has as its target T1, Ret(V804M)(h) (Homo sapiens, UniProt P07949, V804M).
T1 construct: purchased Eurofins (KinaseProfiler)

The target of assay [2] is T2, Plk4(h) (Homo sapiens, UniProt O00444).
T2 construct: purchased Eurofins (KinaseProfiler)
T2 sequence (O00444 1-970): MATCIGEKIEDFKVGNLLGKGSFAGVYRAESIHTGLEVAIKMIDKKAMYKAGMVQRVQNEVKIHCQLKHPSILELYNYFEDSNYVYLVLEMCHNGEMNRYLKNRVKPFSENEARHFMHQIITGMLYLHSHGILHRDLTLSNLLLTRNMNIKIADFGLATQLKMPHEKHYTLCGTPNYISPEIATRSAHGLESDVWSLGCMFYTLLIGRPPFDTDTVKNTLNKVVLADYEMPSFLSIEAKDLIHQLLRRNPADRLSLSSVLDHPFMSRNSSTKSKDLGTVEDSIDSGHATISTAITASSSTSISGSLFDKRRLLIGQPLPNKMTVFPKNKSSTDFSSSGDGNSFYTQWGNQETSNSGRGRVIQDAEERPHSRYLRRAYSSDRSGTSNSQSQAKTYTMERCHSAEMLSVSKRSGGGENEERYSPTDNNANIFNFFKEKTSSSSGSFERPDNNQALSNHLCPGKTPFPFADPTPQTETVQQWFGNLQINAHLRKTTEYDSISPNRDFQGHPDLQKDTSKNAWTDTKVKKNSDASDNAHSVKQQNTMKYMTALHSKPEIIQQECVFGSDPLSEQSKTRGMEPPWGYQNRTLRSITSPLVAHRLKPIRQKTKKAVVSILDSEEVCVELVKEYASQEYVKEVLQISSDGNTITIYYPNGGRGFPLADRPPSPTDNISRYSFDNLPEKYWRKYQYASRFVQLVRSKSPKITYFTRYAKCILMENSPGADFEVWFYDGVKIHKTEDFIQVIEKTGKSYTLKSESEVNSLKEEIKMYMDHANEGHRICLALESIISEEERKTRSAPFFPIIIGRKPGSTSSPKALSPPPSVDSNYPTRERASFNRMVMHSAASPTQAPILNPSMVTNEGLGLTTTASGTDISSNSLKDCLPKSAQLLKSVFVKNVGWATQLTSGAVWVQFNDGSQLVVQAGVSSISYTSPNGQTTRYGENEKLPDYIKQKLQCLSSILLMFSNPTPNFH

For assay [3], the target named is T3, KDR(h) (Homo sapiens, UniProt P35968).
T3 construct: purchased Eurofins (KinaseProfiler)
T3 sequence (P35968 20-1356): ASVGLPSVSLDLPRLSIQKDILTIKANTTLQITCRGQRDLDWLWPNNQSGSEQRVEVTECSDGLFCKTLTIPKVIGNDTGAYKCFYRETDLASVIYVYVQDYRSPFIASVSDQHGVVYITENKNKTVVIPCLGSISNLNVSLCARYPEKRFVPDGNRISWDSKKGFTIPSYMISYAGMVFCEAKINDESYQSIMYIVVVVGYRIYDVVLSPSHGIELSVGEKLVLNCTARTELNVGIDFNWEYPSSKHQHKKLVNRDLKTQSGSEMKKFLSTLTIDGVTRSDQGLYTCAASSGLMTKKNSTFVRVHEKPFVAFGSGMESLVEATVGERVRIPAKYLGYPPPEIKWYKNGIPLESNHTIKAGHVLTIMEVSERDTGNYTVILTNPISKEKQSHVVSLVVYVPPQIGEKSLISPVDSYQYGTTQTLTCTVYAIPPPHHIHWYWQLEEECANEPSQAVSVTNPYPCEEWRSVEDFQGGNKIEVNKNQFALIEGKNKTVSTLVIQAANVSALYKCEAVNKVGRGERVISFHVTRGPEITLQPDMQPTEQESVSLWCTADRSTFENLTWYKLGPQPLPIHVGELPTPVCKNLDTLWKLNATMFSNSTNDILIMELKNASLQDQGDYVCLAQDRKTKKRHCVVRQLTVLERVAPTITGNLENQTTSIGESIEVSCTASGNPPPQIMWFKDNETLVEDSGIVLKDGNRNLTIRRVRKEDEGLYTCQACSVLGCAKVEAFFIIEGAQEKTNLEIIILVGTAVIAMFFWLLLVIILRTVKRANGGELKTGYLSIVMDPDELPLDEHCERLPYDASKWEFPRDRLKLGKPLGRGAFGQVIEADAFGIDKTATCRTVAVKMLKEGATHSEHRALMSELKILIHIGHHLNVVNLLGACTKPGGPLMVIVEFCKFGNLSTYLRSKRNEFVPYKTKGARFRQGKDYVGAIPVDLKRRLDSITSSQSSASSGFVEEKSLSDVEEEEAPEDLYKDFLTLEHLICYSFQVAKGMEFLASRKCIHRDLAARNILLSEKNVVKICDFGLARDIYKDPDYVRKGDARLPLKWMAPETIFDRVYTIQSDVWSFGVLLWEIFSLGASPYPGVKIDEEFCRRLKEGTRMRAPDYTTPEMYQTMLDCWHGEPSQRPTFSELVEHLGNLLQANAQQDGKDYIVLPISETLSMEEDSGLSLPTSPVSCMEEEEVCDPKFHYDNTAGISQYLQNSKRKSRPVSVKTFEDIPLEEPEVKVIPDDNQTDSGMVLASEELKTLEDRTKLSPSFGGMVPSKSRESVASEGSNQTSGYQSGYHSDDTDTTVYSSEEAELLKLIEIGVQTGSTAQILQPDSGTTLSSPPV

The target in assay [4] is T4, AMPKα1(h) (Homo sapiens, UniProt Q13131).
T4 construct: purchased Eurofins (KinaseProfiler)
T4 sequence (Q13131 whole entry): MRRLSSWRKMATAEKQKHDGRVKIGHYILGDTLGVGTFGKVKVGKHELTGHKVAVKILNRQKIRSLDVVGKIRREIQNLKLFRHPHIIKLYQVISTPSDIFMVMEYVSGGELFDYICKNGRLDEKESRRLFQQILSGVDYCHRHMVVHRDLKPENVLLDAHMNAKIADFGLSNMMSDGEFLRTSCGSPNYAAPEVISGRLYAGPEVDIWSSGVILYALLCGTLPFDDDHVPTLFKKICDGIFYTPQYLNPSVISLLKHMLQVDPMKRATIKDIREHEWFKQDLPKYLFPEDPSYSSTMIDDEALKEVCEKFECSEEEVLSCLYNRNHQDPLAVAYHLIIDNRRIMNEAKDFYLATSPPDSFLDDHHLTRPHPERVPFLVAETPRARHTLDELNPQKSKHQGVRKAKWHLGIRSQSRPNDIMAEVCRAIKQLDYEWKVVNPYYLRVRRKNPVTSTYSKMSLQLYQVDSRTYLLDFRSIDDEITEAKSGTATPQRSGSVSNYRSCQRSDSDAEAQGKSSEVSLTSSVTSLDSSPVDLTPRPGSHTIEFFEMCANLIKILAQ
T4 sequence (Q9Y478 whole entry partner): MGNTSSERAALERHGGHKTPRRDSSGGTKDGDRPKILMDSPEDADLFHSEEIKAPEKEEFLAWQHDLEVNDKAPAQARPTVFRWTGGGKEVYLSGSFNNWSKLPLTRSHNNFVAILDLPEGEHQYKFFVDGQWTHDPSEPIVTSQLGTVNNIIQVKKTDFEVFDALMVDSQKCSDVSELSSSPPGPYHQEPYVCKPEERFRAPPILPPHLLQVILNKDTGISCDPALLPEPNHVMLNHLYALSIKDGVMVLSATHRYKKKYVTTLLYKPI
T4 sequence (P54619 whole entry partner): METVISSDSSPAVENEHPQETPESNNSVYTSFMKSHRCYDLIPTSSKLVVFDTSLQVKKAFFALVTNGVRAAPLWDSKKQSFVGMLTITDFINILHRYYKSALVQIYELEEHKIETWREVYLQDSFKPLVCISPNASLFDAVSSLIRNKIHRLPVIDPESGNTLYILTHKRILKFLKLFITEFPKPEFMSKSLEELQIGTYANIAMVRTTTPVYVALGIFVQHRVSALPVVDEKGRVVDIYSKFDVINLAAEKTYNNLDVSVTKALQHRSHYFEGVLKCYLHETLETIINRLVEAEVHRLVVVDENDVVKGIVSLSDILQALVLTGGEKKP

The target of assay [5] is T5, TLK1(h) (Homo sapiens, UniProt Q9UKI8).
T5 construct: purchased Eurofins (KinaseProfiler)
T5 sequence (Q9UKI8 1-766): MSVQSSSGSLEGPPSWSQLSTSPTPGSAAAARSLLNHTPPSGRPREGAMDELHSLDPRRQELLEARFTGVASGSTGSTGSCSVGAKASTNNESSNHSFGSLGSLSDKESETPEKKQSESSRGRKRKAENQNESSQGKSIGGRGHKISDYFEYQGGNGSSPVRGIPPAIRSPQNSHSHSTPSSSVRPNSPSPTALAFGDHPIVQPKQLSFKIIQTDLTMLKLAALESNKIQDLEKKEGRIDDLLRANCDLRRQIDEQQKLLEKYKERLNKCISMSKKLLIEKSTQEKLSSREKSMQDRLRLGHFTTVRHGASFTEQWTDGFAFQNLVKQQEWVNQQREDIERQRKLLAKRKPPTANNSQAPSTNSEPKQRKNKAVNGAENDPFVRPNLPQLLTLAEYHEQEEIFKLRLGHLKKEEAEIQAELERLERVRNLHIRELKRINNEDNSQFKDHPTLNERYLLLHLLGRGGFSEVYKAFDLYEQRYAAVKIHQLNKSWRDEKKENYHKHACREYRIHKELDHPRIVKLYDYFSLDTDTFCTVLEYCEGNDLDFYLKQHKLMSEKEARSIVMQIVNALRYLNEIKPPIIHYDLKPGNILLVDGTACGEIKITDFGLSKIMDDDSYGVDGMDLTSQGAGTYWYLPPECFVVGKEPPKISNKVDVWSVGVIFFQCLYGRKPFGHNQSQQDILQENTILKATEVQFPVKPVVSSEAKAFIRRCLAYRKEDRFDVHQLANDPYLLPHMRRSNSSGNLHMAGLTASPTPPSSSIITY

Assay [6] concerns the target T6, ARK5(h) (Homo sapiens, UniProt O60285).
T6 construct: purchased Eurofins (KinaseProfiler)
T6 sequence (O60285 1-661): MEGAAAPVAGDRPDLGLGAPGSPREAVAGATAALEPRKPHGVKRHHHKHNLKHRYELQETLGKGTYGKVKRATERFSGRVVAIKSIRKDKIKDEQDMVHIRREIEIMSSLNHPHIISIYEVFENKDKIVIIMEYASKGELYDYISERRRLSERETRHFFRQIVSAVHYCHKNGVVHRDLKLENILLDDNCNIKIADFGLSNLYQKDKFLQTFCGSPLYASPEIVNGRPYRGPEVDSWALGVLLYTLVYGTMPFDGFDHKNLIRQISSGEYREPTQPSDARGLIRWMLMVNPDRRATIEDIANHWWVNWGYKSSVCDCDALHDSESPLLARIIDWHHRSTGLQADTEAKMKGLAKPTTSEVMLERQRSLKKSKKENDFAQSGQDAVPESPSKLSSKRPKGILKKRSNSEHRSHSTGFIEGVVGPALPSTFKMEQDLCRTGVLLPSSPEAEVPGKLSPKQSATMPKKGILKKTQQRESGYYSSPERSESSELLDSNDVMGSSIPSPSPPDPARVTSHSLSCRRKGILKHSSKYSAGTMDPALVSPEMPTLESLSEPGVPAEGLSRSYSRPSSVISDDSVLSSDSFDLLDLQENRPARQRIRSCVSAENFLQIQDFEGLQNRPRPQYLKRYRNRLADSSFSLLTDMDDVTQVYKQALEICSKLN

T1 sequence (P07949 29-1114 V804M): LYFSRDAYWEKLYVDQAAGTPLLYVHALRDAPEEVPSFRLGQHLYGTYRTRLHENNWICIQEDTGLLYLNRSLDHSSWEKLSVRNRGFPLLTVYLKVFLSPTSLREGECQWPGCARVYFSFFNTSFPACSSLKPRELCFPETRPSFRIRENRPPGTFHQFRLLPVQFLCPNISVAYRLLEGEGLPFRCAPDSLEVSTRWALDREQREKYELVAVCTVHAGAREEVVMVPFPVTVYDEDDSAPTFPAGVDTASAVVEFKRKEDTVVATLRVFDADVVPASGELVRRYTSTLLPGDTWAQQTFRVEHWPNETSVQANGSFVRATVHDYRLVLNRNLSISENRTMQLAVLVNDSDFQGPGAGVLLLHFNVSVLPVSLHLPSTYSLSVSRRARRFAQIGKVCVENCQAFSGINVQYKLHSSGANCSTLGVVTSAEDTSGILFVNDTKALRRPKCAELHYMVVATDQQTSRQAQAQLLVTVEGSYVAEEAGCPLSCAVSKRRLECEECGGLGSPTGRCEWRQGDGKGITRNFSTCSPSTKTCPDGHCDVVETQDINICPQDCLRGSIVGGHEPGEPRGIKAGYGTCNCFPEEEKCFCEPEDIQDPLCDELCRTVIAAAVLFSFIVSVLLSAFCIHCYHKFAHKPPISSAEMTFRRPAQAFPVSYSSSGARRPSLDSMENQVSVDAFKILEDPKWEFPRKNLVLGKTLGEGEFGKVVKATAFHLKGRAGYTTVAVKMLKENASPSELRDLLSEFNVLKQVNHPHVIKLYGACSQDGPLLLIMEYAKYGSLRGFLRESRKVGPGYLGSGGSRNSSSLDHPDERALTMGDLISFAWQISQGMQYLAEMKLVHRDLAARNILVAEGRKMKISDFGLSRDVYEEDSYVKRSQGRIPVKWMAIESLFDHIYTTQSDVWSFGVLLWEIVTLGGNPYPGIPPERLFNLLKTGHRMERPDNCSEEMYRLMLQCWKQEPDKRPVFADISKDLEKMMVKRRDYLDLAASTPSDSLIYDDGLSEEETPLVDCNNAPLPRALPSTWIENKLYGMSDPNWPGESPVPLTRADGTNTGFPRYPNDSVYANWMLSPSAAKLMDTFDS

As to `COc1cc(OC)c(Cl)c(-c2ccc3c(NC(=O)c4ccc(N5CCNC(C)(C)C5)cc4)n[nH]c3n2)c1Cl` [3D185], the inhibition at 0.01 µM is -3% in assay [1] (10 nM); -18% in assay [2] (10 nM); -2% in assay [3] (10 nM); -8% in assay [4] (10 nM); -1% in assay [5] (10 nM); 11% in assay [6] (10 nM). For the same compound, the inhibition at 0.1 µM was -2% in assay [1] (100 nM); -20% in assay [2] (100 nM); 1% in assay [3] (100 nM); -6% in assay [4] (100 nM); -4% in assay [5] (100 nM); 16% in assay [6] (100 nM). Besides, the inhibition at 1 µM in assay [1] (1000 nM) is 56%; in assay [2] (1000 nM), -17%; in assay [3] (1000 nM) it was 10%; in assay [4] (1000 nM) it was -13%; in assay [5] (1000 nM), -8%; in assay [6] (1000 nM) it was 13%.

By inhibition is commonly meant the relative decrease from the control value, in per cent.
